According to article PMC5363837 (Circulation, 2017):
Each block holds one molecule with its values, some of them ahead of it. Bridge positions count the residues as written; N and C are the ends. Ends that are not written are not given here. Peptide text beside a SMILES is read from it.

Experiments:
human apelin receptor [1] = target: T1, human apelin receptor (Homo sapiens, UniProt P35414); assay: Competition binding in CHO-K1 cells expressing the human apelin receptor (Cerep); parameters: host or cells: CHO-K1
T1 sequence (P35414 1-380): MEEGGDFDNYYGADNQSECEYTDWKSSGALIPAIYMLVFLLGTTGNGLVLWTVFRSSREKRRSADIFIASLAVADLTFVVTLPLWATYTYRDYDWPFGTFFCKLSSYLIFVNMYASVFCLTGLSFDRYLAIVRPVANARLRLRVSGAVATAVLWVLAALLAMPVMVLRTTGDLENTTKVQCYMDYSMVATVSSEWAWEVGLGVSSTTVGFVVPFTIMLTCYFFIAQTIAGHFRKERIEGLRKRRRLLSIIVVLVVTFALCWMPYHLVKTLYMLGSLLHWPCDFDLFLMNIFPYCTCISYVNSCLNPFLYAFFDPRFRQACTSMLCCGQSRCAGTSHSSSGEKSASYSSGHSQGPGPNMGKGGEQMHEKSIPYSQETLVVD
Procedure: Comptetition Binding Experiments
(§1) For structure activity studies competition binding experiments were conductedin triplicate in
(§2) homogenate of pooled human LV from cardiom yopathy patients as previousl y described 1.
(§3) Homogenate of human LV wa s incubat ed for 90 min with 0.1nmol/L [Glp 65,Nle75, T yr 77]
(§4) (0.5pmol/ L-10μmol/L) ( n=3 each). Non- specific binding was defined using 1μmol/L
(§5) Equilibrium was broken b y centrifugation (20,000g for 10 min, 4 °C). Pellets
(§6) were washed with Tris-H Cl buffer (50 mmol/ L, pH 7.4, 4 °C), re-centrifuged and bound
(§7) radioactivity in final pellets counted. Data from triplicate experiments wer e anal yz ed using th e
(§8) iterative non-linear curve fitting programs EBDA and LIGAND (KELL package, Biosoft, UK)
(§9) or GraphPad Prism6 and to derive values of affinit y (ex pressed as the –log 10 of the dissociation
constant (pKi ±sem) ) and recepto r densit y (BM AX ± sem).The pK i and B M AX values for the thr ee

human apelin receptor [2] = target: T1, human apelin receptor; assay: Receptor internalization assay (DiscoveRx), U2OS cells; assay type: cell-based
Text: (§10) Inhibition of cAMP accumulation, β-arrestin recruitment, and receptor internalization assays were used to determine values of potency (pD2 [–log10 EC50]) and maximum response (EMAX). pD2 values were compared by using 1-way ANOVA with Tukey multiple comparison.
Responses measured in r elative light units were fitted to 4 parameter logistic
concentration response curves in GraphPad Prism 6 (La J olla, CA, USA) and values of
potenc y,pD 2 ( -log10 EC 50 (where EC 50 is the concentration producing half maximal response) ),
and maximum response (EM AX ) w ere calculat ed fo r each compound.Data were subs equentl y
Respon ses measured in relatve li ght units wer e fitted
(§11) to 4 parameter logistic concentration response curves in GraphPad Prism 6 (La J olla, CA,
(§12) USA) and values o f pD 2 ( -log10 EC 50) and maximum response (EM AX ) w er e calcul at ed for each
(§13) used as the refer ence ago nists in each assa y.
Internalisation a ssa ys w ere co nduct ed as previously des cribed1.U2OS cells artificially
ex pressing the human ap elin recepto r wer e seeded in Cell Plating medium in 96 -well plates and
incubated for 48 hours at 37 °C in 5% CO 2.
the cells for 3 hours at 37 °C. This was followed b y incubation with the detection reagents fo r
90 minutes at room temperature and luminescen ce readin g .D at a were an al y s ed as described
for the β -arrestin assa y .

human apelin receptor [3] = target: T1, human apelin receptor; assay: Competition binding, [125I]apelin-13, homogenate of human left ventricle; details: read-out: pKi in human LV (converted)
Procedure: as §1, §2, §3
[125 I] apelin-13 in assa y buffer (mmol/ L: Tris 50, MgCl2 5, pH 7.4, 22 °C), in the presence of
as §4, §5, §6, §7, §8, §9

human apelin receptor [4] = target: T1, human apelin receptor; assay: Competition binding of ELA-21 in normal and PAH human LV and RV homogenate; parameters: host or cells: CHO-K1; details: pooled homogenate, mean±SEM, n=3
Procedure: Experiments were conducted in homogenate of human ventricle or Chinese hamster ovary (CHO)-K1 cells expressing the human apelin receptor.
To investigate whether the affinit y of ELA peptides or the density of ELA binding sites is altered in human PAH competition binding experiments were repeated as described above using ELA-21 as the com peting li gand in LV and RV from pooled homogenate from six patients transplanted for PAH and LV and RV from six normal hearts as controls. Datafrom triplicate experiments were anal yzed usin g the iter ative non -linear curve fitting programs EBDA and LIGAND (KELL package, Biosoft, UK) to determine values of affinity (K D) and recepto r densit y (B M AX ). Values were compared for LV and RV between P AH and controls using Student’s 2- tailed t -test. […]

human apelin receptor [5] = target: T1, human apelin receptor; assay: β-arrestin recruitment assay (DiscoveRx), CHO-K1 cells; assay type: cell-based; parameters: host or cells: CHO-K1
Text: as §10
β-Arrestin ass a ys wer e conducted as previousl y described1.CHO- K1 cells artificially
ex pressing the human ap elin recepto r wer e seeded in C ell P lating medium into 96-well plates
3μmol/L ) wer e diluted in Cell Plating mediumand added to the cells for 90 minutes at 37 °C..
Detection reagents were then added fo ra 2- hour incubation at room temperature
followed b y chemiluminescence r eadin g. Respon ses measured in relatve li ght units wer e fitted
as §11, §12, §13

human apelin receptor [6] = target: T1, human apelin receptor; assay: Inhibition of forskolin-induced cAMP accumulation (DiscoveRx), CHO-K1 cells; assay type: cell-based; parameters: host or cells: CHO-K1
[7] = target: T2, human apelin receptor expressed in CHO-K1 cells (human, UniProt P35414 1-380); assay: radioligand binding; competition binding in CHO-K1 cells expressing the human apelin receptor; details: one partner purified
T2 construct: human apelin receptor (APJ) expressed in CHO-K1 cells; the Data Supplement Methods may tell; Used here also as the target of the cell-based assays, whose cells the text calls only 'cells expressing the apelin receptor'; also called APJ; source: Chinese hamster ovary (CHO)-K1 cells expressing the human apelin receptor
T2 sequence (looked up): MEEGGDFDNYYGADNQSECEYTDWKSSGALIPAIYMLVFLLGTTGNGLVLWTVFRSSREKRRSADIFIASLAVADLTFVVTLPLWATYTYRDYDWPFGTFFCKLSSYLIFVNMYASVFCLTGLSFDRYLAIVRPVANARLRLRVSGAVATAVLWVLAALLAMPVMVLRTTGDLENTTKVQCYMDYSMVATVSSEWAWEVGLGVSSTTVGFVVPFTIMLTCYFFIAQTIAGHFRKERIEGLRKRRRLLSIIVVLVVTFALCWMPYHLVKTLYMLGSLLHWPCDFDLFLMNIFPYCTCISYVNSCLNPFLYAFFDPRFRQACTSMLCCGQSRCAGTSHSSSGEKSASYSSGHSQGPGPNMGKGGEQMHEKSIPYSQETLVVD

[8] = target: T2, human apelin receptor expressed in …; assay: cell-based or functional assay

fold drop in affinity versus ELA-32, ELA-21 and ELA-14 (human apelin receptor [1]): 100 fold
Molecule: CSCC[C@@H]1NC(=O)[C@@H](N)CSSC[C@@H](C(=O)N[C@@H](CCCNC(=N)N)C(=O)N[C@H](C(=O)N2CCC[C@H]2C(=O)N[C@@H](Cc2ccccc2)C(=O)N2CCC[C@H]2C(=O)O)C(C)C)NC(=O)[C@H](Cc2c[nH]cn2)NC(=O)[C@H](CC(C)C)NC(=O)[C@@H]2CCCN2C1=O [cyclo[1–6]ELA-11] (HELM PEPTIDE1{C.M.P.L.H.C.R.V.P.F.P}$PEPTIDE1,PEPTIDE1,1:R3-6:R3$$$V2.0; N-terminus and C-terminus assumed)

Emax (human apelin receptor [2]; U2OS): 96 ± 2%
EC50 (human apelin receptor [2]; U2OS cells, 3 hours, 37°C, mean±SEM, n=3-5 assays, 2-6 replicates, read-out: Internalization pD2 (converted)): 282 pM
Ki (human apelin receptor [3]): 3020 pM
Ki (human apelin receptor [4]; PAH human left ventricle, read-out: pKi, LV PAH (converted)): 347 pM
Ki (human apelin receptor [4]; PAH human right ventricle, read-out: pKi, RV PAH (converted)): 501 pM
Ki (human apelin receptor [4]; normal human left ventricle, read-out: pKi, LV normal (converted)): 490 pM
Ki (human apelin receptor [4]; normal human right ventricle, read-out: pKi, RV normal (converted)): 1050 pM
Emax (human apelin receptor [5]; CHO-K1): 102 ± 1%
EC50 (human apelin receptor [5]; read-out: β-Arrestin pD2 (converted)): 132 pM
Emax (human apelin receptor [6]; CHO-K1): 101 ± 1%
EC50 (human apelin receptor [6]; read-out: cAMP pD2 (converted)): 372 pM
Molecule: CSCC[C@H](NC(=O)[C@@H]1CSSC[C@H](NC(=O)[C@H](CC(N)=O)NC(=O)[C@H](Cc2c[nH]cn2)NC(=O)[C@H](CCCCN)NC(=O)[C@H](CCCNC(=N)N)NC(=O)[C@@H](N)CC(C)C)C(=O)N[C@@H](CC(C)C)C(=O)N[C@@H](CCC(N)=O)C(=O)N[C@@H](CCCNC(=N)N)C(=O)N[C@@H](CCCNC(=N)N)C(=O)N1)C(=O)N1CCC[C@H]1C(=O)N[C@@H](CC(C)C)C(=O)N[C@@H](Cc1c[nH]cn1)C(=O)N[C@@H](CO)C(=O)N[C@@H](CCCNC(=N)N)C(=O)N[C@H](C(=O)N1CCC[C@H]1C(=O)N[C@@H](Cc1ccccc1)C(=O)N1CCC[C@H]1C(=O)O)C(C)C [ELA-21]

pKi [7]: 7.27
cAMP assay, pD2 (-log10 EC50) [8]: 9.42
β-arrestin recruitment assay, pD2 (-log10 EC50) [8]: 7.67
Molecule: CMPLHCRVPFP (disulfide 1-6) [cyclo[1–6]ELA-11]
